In patent US8101766B2, “Crystalline form of a biphenyl compound” (Theravance, Inc., priority 2004, dated 2012):

Legend:
[1] = target: T1, human M2 muscarinic receptor (Homo sapiens, UniProt P08172); test: Radioligand binding assay for muscarinic receptors (hM2); details: [3H]-NMS displacement, CHO cell membranes
T1 construct: expressed in transfected cells
T1 sequence (P08172 1-466): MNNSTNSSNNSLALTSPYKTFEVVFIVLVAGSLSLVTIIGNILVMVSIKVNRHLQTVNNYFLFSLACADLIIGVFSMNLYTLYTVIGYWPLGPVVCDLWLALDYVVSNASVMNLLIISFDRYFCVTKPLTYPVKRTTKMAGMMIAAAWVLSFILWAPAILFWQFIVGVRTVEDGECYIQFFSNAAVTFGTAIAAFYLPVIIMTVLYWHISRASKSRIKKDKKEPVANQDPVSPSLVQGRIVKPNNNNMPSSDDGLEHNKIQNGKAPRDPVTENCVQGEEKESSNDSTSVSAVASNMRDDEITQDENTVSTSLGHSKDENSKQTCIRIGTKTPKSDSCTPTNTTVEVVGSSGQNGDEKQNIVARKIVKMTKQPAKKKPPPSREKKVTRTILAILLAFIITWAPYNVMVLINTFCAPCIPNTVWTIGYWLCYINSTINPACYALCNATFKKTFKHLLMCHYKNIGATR
Method: The cells were grown in a 5% CO2, 37° C. incubator and lifted with 2 mM EDTA in dPBS. Cells were collected by 5 minute centrifugation at 650×g, and cell pellets were either stored frozen at −80° C. or membranes were prepared immediately for use. For membrane preparation, cell pellets were resuspended in lysis buffer and homogenized with a Polytron PT-2100 tissue disrupter (Kinematica AG; 20 seconds×2 bursts). Crude membranes were centrifuged at 40,000×g for 15 minutes at 4° C. The membrane pellet was then resuspended with re-suspension buffer and homogenized again with the Polytron tissue disrupter. […] All membranes were stored frozen in aliquots at −80° C. or used immediately.
The membranes were briefly homogenized using a Polytron tissue disruptor (10 seconds) prior to assay plate addition. […] Filter plates were rinsed three times with wash buffer (10 mM HEPES) to remove unbound radioactivity. […] Binding data were analyzed by nonlinear regression analysis with the GraphPad Prism Software package (GraphPad Software, Inc., San Diego, Calif.) using the one-site competition model.

[2] = test system: acetylcholine-induced or histamine-induced bronchoconstriction; test: Duration of bronchoprotection in guinea pig models of acetylcholine-induced or histamine-induced bronchoconstriction (model not specified for the result); assay type: in vivo; details: inhalation
Method: (§1) Duration of Bronchoprotection in Guinea Pig Models of Acetylcholine-Induced or Histamine-Induced Bronchoconstriction
(§2) To isolate muscarinic antagonist activity in the acetylcholine-induced bronchoconstriction model, the animals were administered propanolol, a compound that blocks β receptor activity, prior to the administration of acetylcholine. Duration of bronchoprotection in the histamine-induced bronchoconstriction model reflects β2 adrenergic receptor agonist activity.
(§3) Groups of 6 male guinea pigs (Duncan-Hartley (HsdPoc:DH) Harlan, Madison, Wis.) weighing between 250 and 350 g were individually identified by cage cards. Throughout the study, animals were allowed access to food and water ad libitum.
(§4) Test compounds were administered via inhalation over 10 minutes in a whole-body exposure dosing chamber (R&S Molds, San Carlos, Calif.). […] This value was measured gravimetrically by comparing pre- and post-nebulization weights of the filled nebulizer.
(§5) The bronchoprotective effects of test compounds administered via inhalation were evaluated using whole body plethysmography at 1.5, 24, 48 and 72 hours post-dose. […]
(§6) Once it was determined that baseline values were within the range of 0.3-0.9 mL/cm H2O for compliance and within the range of 0.1-0.199 cm H2O/mL per second for resistance, the pulmonary evaluation was initiated. […]

[3] = test system: His-induced bronchoconstriction; test: Bronchoprotection in guinea pig model of histamine-induced bronchoconstriction; assay type: in vivo; details: inhalation
Method: as §1, §2, §3, §4, §5, §6

COc1cc(NC(=O)CCN2CCC(OC(=O)Nc3ccccc3-c3ccccc3)CC2)c(Cl)cc1CNC[C@H](O)c1ccc(O)c2[nH]c(=O)ccc12 [compound of formula I, biphenyl-2-ylcarbamic acid 1-[2-(2-chloro-4-{[(R)-2-hydroxy-2-(8-hydroxy-2-oxo-1,2-dihydroquinolin-5-yl)ethylamino]methyl}-5-methoxyphenylcarbamoyl)ethyl]piperidin-4-yl ester]
Ki [1]: < 10 nM | duration (PD T1/2) of brochoprotective activity [2]: at least 24 hours | bronchoprotective effect against His-induced bronchoconstriction [3]: dose-dependent bronchoprotective effect
